Each structure is given as a SMILES string. Where two headings read alike, the source gives them in different places.

The target of the test is T1, EGF-R (Homo sapiens, UniProt P00533).
T1 construct: another EGFR over-expressing human epidermoid carcinoma cell line, A431 (ATCC CRL 1555); endogenous in cells; host or cells: A431 (ATCC CRL 1555)
The experiment in a line: Cell-free screening assay for EGF-R kinase activity (EGFR immobilized from A431 lysate). The test is classed as biochemical. Particulars: read-out: IC50, EGF-R kinase activity in a cell free system. On the procedure:
This assay provides a method for measuring the effects of test substances on the kinase activity of specific targets in a cell-free system. The target substrate is isolated from cell lysates by immobilization in microtiter plate wells coated with anti-substrate antibody. Following addition of the test substance, ATP and a bivalent cation are added to the wells to initiate the kinase-reaction. Concentrations of ATP can be varied to assess whether a test compound competes for ATP or substrate interaction. […] Phosphorylation of tyrosine residues on the immobilized target is then detected using antiphosphotyrosine antiserum.
The materials and reagents used are described in Section 6.1 with the exception that the cells used to prepare the cell lysate were another EGFR over-expressing human epidermoid carcinoma cell line, A431 (ATCC CRL 1555). Test substances were obtained from LC Service Corp (Woburn, Mass.).
Preparation of the assay plates was performed as described in Section 6.2.1.
Cells (A431) were grown to 80-90% confluency in DMEM (Gibco) plus 10% calf serum then washed twice with PBS. HNTG was added and the dish place on ice for five minutes. […] The cleared lysate can be stored at -80 C until used.
Seven μg of cell lysate was added to each well of a prepared assay plate plus PBS to make a final volume of 150 μl. […] The plate was incubated for 30 minutes, shaking, at room temperature.
The kinase reaction was initiated by the addition of 15 μl of ATP/Mn mix (in 50 mM MnCL2, final concentration of ATP 1 μM, 3 μM or 10 μM) for a total volume of […]. The plate was incubated for 5 minutes at room temperature, shaking, then washed 5 times with TBST. The amount of phosphorylation present was measured as described in Section 6.2.3.

T1 sequence (P00533 25-1210): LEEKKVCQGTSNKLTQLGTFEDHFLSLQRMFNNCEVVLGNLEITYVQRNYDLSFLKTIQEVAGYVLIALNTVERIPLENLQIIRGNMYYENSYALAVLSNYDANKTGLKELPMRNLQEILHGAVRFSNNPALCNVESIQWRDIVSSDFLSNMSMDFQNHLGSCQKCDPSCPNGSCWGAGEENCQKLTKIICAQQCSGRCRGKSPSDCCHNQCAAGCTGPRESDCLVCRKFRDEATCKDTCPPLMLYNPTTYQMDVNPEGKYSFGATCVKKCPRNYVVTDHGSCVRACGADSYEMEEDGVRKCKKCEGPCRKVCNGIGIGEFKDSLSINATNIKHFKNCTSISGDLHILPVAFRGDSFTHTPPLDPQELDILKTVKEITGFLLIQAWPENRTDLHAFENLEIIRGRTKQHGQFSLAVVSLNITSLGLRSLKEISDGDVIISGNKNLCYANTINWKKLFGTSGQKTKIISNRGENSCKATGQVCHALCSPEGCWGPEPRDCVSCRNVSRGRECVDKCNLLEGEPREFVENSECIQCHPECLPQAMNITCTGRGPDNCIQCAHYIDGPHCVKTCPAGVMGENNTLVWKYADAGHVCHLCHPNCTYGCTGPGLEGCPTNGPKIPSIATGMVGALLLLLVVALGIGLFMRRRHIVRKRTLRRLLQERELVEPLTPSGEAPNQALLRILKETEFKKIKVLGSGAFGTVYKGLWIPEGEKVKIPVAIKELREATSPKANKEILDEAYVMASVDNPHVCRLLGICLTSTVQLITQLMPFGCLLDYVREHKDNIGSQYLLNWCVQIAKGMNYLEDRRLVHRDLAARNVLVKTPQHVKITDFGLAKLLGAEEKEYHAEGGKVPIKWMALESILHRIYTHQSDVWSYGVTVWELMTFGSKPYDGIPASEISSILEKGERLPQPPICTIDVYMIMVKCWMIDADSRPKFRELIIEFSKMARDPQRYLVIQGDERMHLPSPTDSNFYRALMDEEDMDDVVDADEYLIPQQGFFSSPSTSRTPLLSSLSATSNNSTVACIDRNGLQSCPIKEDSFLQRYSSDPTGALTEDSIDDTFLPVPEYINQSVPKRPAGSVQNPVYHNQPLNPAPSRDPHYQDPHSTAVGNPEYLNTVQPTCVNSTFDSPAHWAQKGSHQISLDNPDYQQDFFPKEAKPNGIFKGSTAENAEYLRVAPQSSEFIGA

Take `COC1C=CC=C(C)C(=O)NC2=CC(=O)C=C(C2=O)C(OC)C(C)CC(OC)C(OC)C(C)C=C(C)C1OC(N)=O` (stereo not shown) [Herbimycin A]: the IC50 (ATP conc. 1 μM) was more than 100000 nM.

Consider `O=C(O)c1cc(N(Cc2ccccc2O)Cc2cc(O)ccc2O)ccc1O` [Lavendustin A], for which the IC50 amounted to 80 nM (ATP conc. 1 μM), 100 nM (ATP conc. 3 μM) and 55000 nM (ATP conc. 10 μM).

As usually defined, the IC50 is the midpoint of a concentration-inhibition curve.

(Values after patent publication US5763198A, “Screening assays for compounds” (Sugen, Inc., priority 1994, dated 1998).)
